Laboratory results published in US20190038674A1, “Formulation for the Treatment of Diabetes” (priority 2013, published 2019).
“And” between values parts separate entries of the source, which are not always exact repeats. Equal entries are not always repeated.

What was measured:
Assay type in all cases: in vivo, Wistar Albino rat
[1] = test system: streptozotocin treated diabetic rats; experiment: Serum lipid profile (cholesterol, LDL, HDL, triglyceride) in streptozotocin treated diabetic rats; details: for Lipid profile Cholesterol / Lipid profile HDL / Lipid profile LDL / Lipid profile Triglyceride: after 15th day, Glyclazide 1.44 mg/200 g body weight daily
Protocol: (§1) Diabetes was induced in rats by the intra peritoneal injection of streptozotocin (Himedia) at a dose of 50 mg/kg body weight dissolved in citrate buffer (0.1 M, pH 4.5) in the volume of 1 ml/kg. The diabetic rats were given 5% w/v glucose solution orally in order to prevent hypoglycemia during the first day after the streptozotocin administration. Three days after the injection (six group), the blood glucose levels were measured and the animals with blood glucose levels above 300 mg/dl were considered as being diabetic and were used in the subsequent experiments. In all the experiments, rats were fasted for 16 hr prior to streptozotocin injection. • a. Total units=202.5 • b. 1 ml=40 units, 0.1 ml=4 units • c. Therefore total units 202.5/40 units=5.06 ml of streptozotocin solution • d. Freshly prepared streptozotocin solution (5.06 ml of solution/36 rats according to body weight) fed as a single dose only once to induce diabetes.
(§2) Experimental rats were divided in 4 groups of 6 rats per group and 4th group further divided in 4 groups with 6 rats in each sub group. The details of treatments were given below:
(§3) Blood samples were collected retro-orbitally from the inner canthus of the eye under light ether anesthesia using capillary tubes (Micro Hemocrit Capillariea, Mucaps) as described by Sorg and Buckner (1964); Blood was transferred into fresh vials and serum was separated by centrifuging at 2000 rpm for 2 min. Blood glucose levels were measured using Accu-Check glucose kit.
(§4) To observe the effect of administration of cow urine powder SMP blends and standard drug glyclazide diabetic rats was determined by measuring the fasting blood glucose levels and serum lipid profiles.
(§5) Day 3 of induction was designed as day 1 for administration of the standard drug glyclazide and cow urine SMP blends to diabetic rats, fasting blood glucose levels measured on days 1, 5, 10 and 15 of the experiment period. Other parameters were determined on after day 15 and residual study was carried out for another 15 days to observe the reappearance diabetes.
The serum lipid profile parameters such as cholesterol, HDL, LDL and triglycerides content were studied by using blood serum obtained during the experiments.
Cholesterol content in the blood samples were analyzed by using Bio Chemistry
Analyzer which is working on the principle of Lambert's-Beer's law.
For estimation of triglycerides, Bio-chemistry Analyzer was used.

[2] = test system: streptozotocin treated diabetic rats; experiment: Fasting blood glucose in streptozotocin induced diabetic rats, 15 days of treatment; details: for Blood glucose on 15th day: Glyclazide 1.44 mg/200 g body weight, single oral dose daily, day 1 to 15; for Blood glucose on 1st day: before treatment, group later given Glyclazide 1.44 mg/200 g body weight oral daily
Protocol: Albino Wistar rats of both sex (male and female) were procured from the laboratory of Columbia Institute of Pharmacy Tekari, Raipur 493111 (C.G.), India, and were maintained under a 12 h light/dark cycle and allowed for feed and water without limit. Approved experimental protocol in accordance with the guidelines provided by the committee for the control and supervision of experiments on animals (CPCSEA). The experimental rats were registered by CPCSEA and registration number was 1321/ac/10/CPCSEA.
A. Species: Wistar Albino rat
as §1, §2
c. Group 3—Standard drug group—Diabetic animals received daily a single oral dose of the reference drug Glyclazide 1.44 mg/200 g body weight from day 1 to 15. […]
as §3, §4, §5
(§6) Blood glucose was measured by using Accu-Check Active Glucometer (Roche) and the result was expressed as milligram per deciliter (mg/dl). This instrument is working on the principle of photometry.

[3] = test system: streptozotocin treated diabetic rats; experiment: Residual effect on blood glucose levels of diabetic rats during 15-day residual period after treatment; details: residual period after withdrawal, Glyclazide 1.44 mg/200 g
Protocol: as §5, §6
Residual effect of standard drug glyclazide group, skim milk powder group and cow urine powder SMP blends groups (100, 200 and 400 mg) for residual of blood glucose levels in streptozotocin treated rats for 15 days and observations were recorded.

[4] = starting value, Glyclazide group

In the case of `Cc1ccc(S(=O)(=O)NC(=O)NN2CC3CCCC3C2)cc1` (centres unmarked) [Standard Glyclazide, Glyclazide], the “Lipid profile Cholesterol” value [1] is reported as 67.72 ± 3.37 mg/dL, the “Lipid profile HDL” value [1] is reported as 51.55 ± 1.91 mg/dL and the “Lipid profile LDL” value [1] is reported as 16.17 ± 5.25 mg/dL. For the same compound, the “Lipid profile Triglyceride” value [1] was 95.35 ± 3.10 mg/dL, the “Lipid profile Cholesterol” value ([1]; listed as glyclazide) was 67.72 mg/dL and the “Lipid profile HDL” value ([1]; listed as glyclazide) was 51.55 mg/dL. For the same compound, the “Lipid profile LDL” value ([1]; listed as glyclazide) was 16.17 mg/dL, the “Lipid profile Triglyceride” value ([1]; listed as glyclazide) was 95.35 mg/dL and the “blood HDL level before treatment (increased from)” value [1, 4] was 41.75 mg/dL. The “blood LDL level before treatment (reduced from)” value [1, 4] was 83.73 mg/dL, the “blood cholesterol level before treatment (reduced from)” value [1, 4] was 125.44 mg/dL and the “triglyceride level before treatment (reduced from)” value [1, 4] was 187.96 mg/dL. For the same compound, the “Blood glucose on 15th day” value [2] was 125.25 ± 12.33 mg/dL, the “Blood glucose on 15th day” value ([2]; listed as glyclazide) was 125.25 mg/dL and 125.2 mg/dL and the “Blood glucose on 1st day” value [2] was 599.16 ± 57.10 mg/dL. For the same compound, the “Blood glucose on 1st day” value ([2]; listed as glyclazide) was 599.1 mg/dL, the “percent reduce of blood glucose on 15th day” value ([2]; vs 1st day, Glyclazide 1.44 mg/200 g body weight daily) was “(79.09%)” and the “Blood glucose level 20th Day” value [3] was 176.50 ± 29.75 mg/dL. For the same compound, the “Blood glucose level 25th Day” value [3] was 174.76 ± 27.42 mg/dL, the “Blood glucose level 30th Day” value [3] was 201.57 ± 29.85 mg/dL and the “Blood glucose level 20th Day” value ([3]; listed as glyclazide) was 176.50 mg/dL. For the same compound, the “Blood glucose level 25th Day” value ([3]; listed as glyclazide) was 174.76 mg/dL and the “Blood glucose level 30th Day” value ([3]; listed as glyclazide) was 201.57 mg/dL.
